Source: patent US11345694B2, “Antibacterial compounds” (DISCUVA LTD., priority 2017, dated 2022)
Values after ≈ are worked out from the molar mass of the structure shown.

Experiments:
[1] = test system: K. pneumoniae H154680676 (KP5); assay: MIC broth microdilution; format: cell-based, Klebsiella pneumoniae; details: for MIC: Klebsiella pneumoniae
Procedure, shortened: (§1)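 Planktonic MIC determination: compound tested two-fold from 200 down to 0.39 μM final with DMSO capped at 2% final, cation-adjusted Müller-Hinton broth, 37° C for 20-24 hours. Endpoint is the lowest concentration inhibiting growth.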

[2] = test system: K. pneumoniae NCTC 13438 (KP1); assay: MIC broth microdilution; format: cell-based, Klebsiella pneumoniae; details: for MIC: Klebsiella pneumoniae, NCTC13438
Procedure, shortened: as §1

[3] = test system: K. pneumoniae ATCC 700603 (KP3); assay: MIC broth microdilution; format: cell-based, Klebsiella pneumoniae; details: for MIC: Klebsiella pneumoniae, ATCC700603
Procedure, shortened: as §1

[4] = test system: K. pneumoniae H154600588 (KP8); assay: MIC broth microdilution; format: cell-based, Klebsiella pneumoniae; details: for MIC: Klebsiella pneumoniae
Procedure, shortened: as §1

[5] = test system: K. pneumoniae H154640784 (KP7); assay: MIC broth microdilution; format: cell-based, Klebsiella pneumoniae; details: for MIC: Klebsiella pneumoniae
Procedure, shortened: as §1

[6] = test system: K. pneumoniae H154300688 (KP9); assay: MIC broth microdilution; format: cell-based, Klebsiella pneumoniae; details: for MIC: Klebsiella pneumoniae
Procedure, shortened: as §1

[7] = test system: K. pneumoniae H151440671 (KP10); assay: MIC broth microdilution; format: cell-based, Klebsiella pneumoniae; details: for MIC: Klebsiella pneumoniae
Procedure, shortened: as §1

[8] = test system: K. pneumoniae H154020667 (KP6); assay: MIC broth microdilution; format: cell-based, Klebsiella pneumoniae; details: for MIC: Klebsiella pneumoniae
Procedure, shortened: as §1

[9] = test system: E. coli NCTC 13441 (UPEC); assay: MIC broth microdilution; format: cell-based, Escherichia coli; details: for MIC: Escherichia coli, NCTC13441
Procedure, shortened: (§2)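 Following CLSI standards, susceptibility is measured in cation-adjusted Müller-Hinton broth at 37° C without added CO2 for 20-24 hours. Test concentrations run 0.39-200 μM final in doubling steps, DMSO capped at 2%. MIC: lowest concentration without bacterial growth.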

[10] = test system: Pseudomonas aeruginosa ATCC 33359 (PA); assay: MIC broth microdilution; format: cell-based; details: for MIC: ATCC33359
Procedure, shortened: as §2

[11] = test system: Salmonella typhimurium XNAA5 (St); assay: MIC broth microdilution; format: cell-based; details: for MIC: Salmonella enterica
Procedure, shortened: as §2

[12] = test system: Staphylococcus aureus ATCC 35556 (SA); assay: MIC broth microdilution; format: cell-based; details: for MIC: ATCC35556
Procedure, shortened: as §2

[13] = test system: Klebsiella pneumoniae ATCC 10031 (KP2); assay: MIC broth microdilution; format: cell-based; details: for MIC: ATCC10031
Procedure, shortened: as §1

[14] = test system: Acinetobacter baumannii ATCC 17978 (AB); assay: MIC broth microdilution; format: cell-based; details: for MIC: ATCC17978
Procedure, shortened: as §2

[15] = test system: Enterobacter cloacae DSM 30054 (Ed); assay: MIC broth microdilution; format: cell-based; details: for MIC: DSM30054
Procedure, shortened: as §1

[16] = test system: Escherichia coli K12 (EC); assay: MIC broth microdilution; format: cell-based
Procedure, shortened: as §2

[17] = test system: Serratia marcescens SL1344 (Sm); assay: MIC broth microdilution; format: cell-based
Procedure, shortened: as §2

[18] = test system: human hepatocarcinoma cell line ATCC HB-8065 (HepG2); assay: Human cell viability (CellTiter-Glo); format: cell-based; details: Homo sapiens; HepG2 cells, 24 h incubation, CellTiter-Glo luminescence, 0.2-100 μM; read-out: IC50 values against the HepG2 cell line
Procedure, shortened: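 Cytotoxicity was read as CellTiter-Glo luminescence after 24 h compound exposure at 37° C., 5% CO2. Final concentrations spanned 0.2-100 μM in two-fold steps, in 1% FBS MEM with 1% DMSO, on cells plated a day earlier at 20,000/well. IC50 came from 4-parameter logistic regression.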

SMILES	MIC [1] [µM]	MIC [2] [µM]	MIC [3] [µM]	MIC [4] [µM]	MIC [5] [µM]	MIC [6] [µM]	MIC [7] [µM]	MIC [8] [µM]	MIC [9] [µM]	MIC [10] [µM]	MIC [11] [µM]	MIC [12] [µM]	MIC [13] [µM]	MIC [14] [µM]	MIC [15] [µM]	MIC [16] [µM]	MIC [17] [µM]	IC50 [18] [µM]	other results
Cc1cc(-c2[nH]c(N)nc2-c2ccc(OCc3ccc(F)cc3)cc2)ccn1 [Example 19, 4-(4-((4-Fluorobenzyl)oxy)phenyl)-5-(2-methylpyridin-4-yl)-1H-imidazol-2-amine]	≤ 1	≤ 1	≤ 1	1 to 10 (≈ 0.374 to 3.74 µg/mL)	1 to 10 (≈ 0.374 to 3.74 µg/mL)	≤ 1	≤ 1	≤ 1	≤ 1	> 100	≤ 1	10 to 100 (≈ 3.74 to 37.4 µg/mL)	≤ 1	10 to 100 (≈ 3.74 to 37.4 µg/mL)	≤ 1	≤ 1	≤ 1	25 to 100	–
Cc1cc(-c2[nH]c(N)nc2-c2ccc3c(c2)OCCO3)ccn1 [Example 23, 4-(2,3-Dihydrobenzo[b][1,4]dioxin-6-yl)-5-(2-methylpyridin-4-yl)-1H-imidazol-2-amine]	≤ 1	1 to 10 (≈ 0.308 to 3.08 µg/mL)	1 to 10 (≈ 0.308 to 3.08 µg/mL)	1 to 10 (≈ 0.308 to 3.08 µg/mL)	1 to 10 (≈ 0.308 to 3.08 µg/mL)	≤ 1	≤ 1	≤ 1	≤ 1	> 100	≤ 1	> 100	≤ 1	> 100	≤ 1	≤ 1	1 to 10 (≈ 0.308 to 3.08 µg/mL)	> 100	–
Cc1cc(-c2[nH]c(N)nc2-c2ccc3c(c2)NCCO3)ccn1 [Example 27, 4-(3,4-Dihydro-2H-benzo[b][1,4]oxazin-6-yl)-5-(2-methylpyridin-4-yl)-1H-imidazol-2-amine]	≤ 1	1 to 10 (≈ 0.307 to 3.07 µg/mL)	1 to 10 (≈ 0.307 to 3.07 µg/mL)	1 to 10 (≈ 0.307 to 3.07 µg/mL)	1 to 10 (≈ 0.307 to 3.07 µg/mL)	1 to 10 (≈ 0.307 to 3.07 µg/mL)	≤ 1	≤ 1	≤ 1	> 100	≤ 1	> 100	≤ 1	> 100	≤ 1	≤ 1	1 to 10 (≈ 0.307 to 3.07 µg/mL)	> 100	–
Cc1cc(-c2[nH]c(N)nc2-c2ccc(OCc3ccc(F)cc3)nc2)ccn1 [Example 28, 4-(6-((4-Fluorobenzyl)oxy)pyridin-3-yl)-5-(2-methylpyridin-4-yl)-1H-imidazol-2-amine]	≤ 1	1 to 10 (≈ 0.375 to 3.75 µg/mL)	1 to 10 (≈ 0.375 to 3.75 µg/mL)	1 to 10 (≈ 0.375 to 3.75 µg/mL)	1 to 10 (≈ 0.375 to 3.75 µg/mL)	≤ 1	≤ 1	≤ 1	≤ 1	> 100	≤ 1	> 100	≤ 1	> 100	≤ 1	≤ 1	≤ 1	25 to 100	–
C[C@@H](O)[C@H]1C(=O)N2C(C(=O)O)=C(SCCN=CN)C[C@H]12 [IPM]	–	–	–	–	–	–	–	–	–	–	–	–	–	–	–	–	–	–	MIC KP5 [1]: B (a MIC of from 1 to 10 is assigned the letter B); MIC KP1 [2]: C (a MIC of from 10 to 100 is assigned the letter C); MIC KP3 [3]: B (a MIC of from 1 to 10 is assigned the letter B); MIC KP8 [4]: D (a MIC of over 100 is assigned the letter D); MIC KP7 [5]: C (a MIC of from 10 to 100 is assigned the letter C); MIC KP9 [6]: D (a MIC of over 100 is assigned the letter D); MIC KP10 [7]: C (a MIC of from 10 to 100 is assigned the letter C); MIC KP6 [8]: B (a MIC of from 1 to 10 is assigned the letter B); MIC UPEC [9]: A (an MIC (μM) of less or equal to 1 is assigned the letter A); MIC PA [10]: B (a MIC of from 1 to 10 is assigned the letter B); MIC St [11]: B (a MIC of from 1 to 10 is assigned the letter B); MIC SA [12]: A (an MIC (μM) of less or equal to 1 is assigned the letter A); MIC KP2 [13]: B (a MIC of from 1 to 10 is assigned the letter B); MIC AB [14]: A (an MIC (μM) of less or equal to 1 is assigned the letter A); MIC Ecl [15]: B (a MIC of from 1 to 10 is assigned the letter B); MIC EC [16]: A (an MIC (μM) of less or equal to 1 is assigned the letter A); MIC Sm [17]: B (a MIC of from 1 to 10 is assigned the letter B)
